Assay results as given in the NIST ThermoML archive (doi:10.1021/je201334p).

Tests used:
[1] = xn = mol fraction of the nth substance listed; settings: 101 kPa, Liquid; for speed of sound: Sing-around technique in a fixed-path interferometer; for mass density: Vibrating tube method
[2] = refractive index (Na D-line) (dimensionless); xn = mol fraction of the nth substance listed; settings: 101 kPa, Liquid, Standard Abbe refractometry

CCCCn1cc[n+](C)c1.N#CN=C=[N-] [1-butyl-3-methylimidazolium dicyanamide] + O
Settings | mass density, 288.15 K [kg/m3] | mass density, 298.15 K [kg/m3] | mass density, 308.15 K [kg/m3] | refractive index, 288.15 K | refractive index, 298.15 K | refractive index, 308.15 K | speed of sound, 288.15 K [m/s] | speed of sound, 298.15 K [m/s] | speed of sound, 308.15 K [m/s]
[1], x2 = 0 | 1066.58 | 1060.17 | 1053.83 | – | – | – | 1764.3 | 1738.1 | 1713.1
[1], x2 = 0.1088 | 1065.59 | 1059.16 | 1052.79 | – | – | – | 1762 | 1736.9 | 1712.4
[1], x2 = 0.1227 | 1065.44 | 1059.01 | 1052.64 | – | – | – | 1761.9 | 1736.8 | 1712.2
[1], x2 = 0.2017 | 1064.62 | 1058.16 | 1051.77 | – | – | – | 1760.9 | 1735.9 | 1711.6
[1], x2 = 0.2943 | 1063.46 | 1056.98 | 1050.55 | – | – | – | 1759.9 | 1735 | 1710.7
[1], x2 = 0.3952 | 1061.88 | 1055.35 | 1048.88 | – | – | – | 1758.3 | 1734 | 1710
[1], x2 = 0.503 | 1059.83 | 1053.24 | 1046.7 | – | – | – | 1756.8 | 1733 | 1709.4
[1], x2 = 0.5985 | 1057.37 | 1050.71 | 1044.09 | – | – | – | 1755.5 | 1732.1 | 1709
[1], x2 = 0.7032 | 1053.63 | 1046.89 | 1040.15 | – | – | – | 1751.4 | 1729.1 | 1706.9
[1], x2 = 0.805 | 1047.26 | 1040.5 | 1033.69 | – | – | – | 1738.5 | 1718.6 | 1698.2
[1], x2 = 0.9006 | 1035.92 | 1029.6 | 1023.11 | – | – | – | 1694.1 | 1682.2 | 1668.8
[1], x2 = 0.9503 | 1024.07 | 1018.75 | 1013.06 | – | – | – | 1630.6 | 1630.5 | 1627.4
[2], x2 = 0 | – | – | – | 1.51213 | 1.50893 | 1.50578 | – | – | –
[2], x2 = 0.1088 | – | – | – | 1.5099 | 1.50673 | 1.50348 | – | – | –
[2], x2 = 0.1227 | – | – | – | 1.50953 | 1.50631 | 1.50321 | – | – | –
[2], x2 = 0.2017 | – | – | – | 1.50758 | 1.50443 | 1.50114 | – | – | –
[2], x2 = 0.2943 | – | – | – | 1.50476 | 1.50161 | 1.49821 | – | – | –
[2], x2 = 0.3952 | – | – | – | 1.50075 | 1.49756 | 1.49443 | – | – | –
[2], x2 = 0.503 | – | – | – | 1.49536 | 1.49223 | 1.48897 | – | – | –
[2], x2 = 0.5985 | – | – | – | 1.48855 | 1.48541 | 1.48225 | – | – | –
[2], x2 = 0.7032 | – | – | – | 1.47799 | 1.47495 | 1.47147 | – | – | –
[2], x2 = 0.805 | – | – | – | 1.46004 | 1.45694 | 1.45386 | – | – | –
[2], x2 = 0.9006 | – | – | – | 1.42867 | 1.42613 | 1.42382 | – | – | –
[2], x2 = 0.9503 | – | – | – | 1.39733 | 1.3952 | 1.39322 | – | – | –
